From PMC4718506 (Bioscience Reports, 2016)
Values belong to the substance of their own block, whether it stands above or below them. Where no end group is shown, it is not given here.

Tests used:
GLP-1R [1] = conditions: truncation of first two residues of GLP-1; cited from earlier work
GLP-1R [2] = conditions: truncation of first two residues of GLP-1; cited from earlier work; remark: listed apart in the source
[3] = system: glucagon receptor with upper half replaced by GLP-1R; conditions: upper half of glucagon receptor replaced with GLP-1R; cited from earlier work
glucagon receptor = conditions: cited from earlier work
From the text: (§1) This putative salt bridge may play an important structural role, the disruption of which could result in a disturbance of the agonist-binding site formed by other residues in ECL2.

[4] = system: hGLP-1R double-Ala mutants (four sites, TM4/ECL2/TM5); test: Radioligand binding, double-Ala scan; set-up: species or system human; conditions: 75 pM 125I-GLP-1, >10,000-fold unlabelled GLP-1 competitor; four sites of double-Ala scan; data in Table S2
Description: Flp-In HEK293 cells, cultured to confluence on five 160-cm^2 Petri dishes (pre-coated with poly-D-lysine), were washed with PBS, followed by the addition of 15 ml of ice-cold sterile double distilled water to induce cell lysis. Following 5 min incubation on ice, the ruptured cells were thoroughly washed with ice-cold PBS before being scraped from the plates and pelleted by centrifugation in a bench-top centrifuge (13,000 g for 30 min). The crude membrane pellet was resuspended in 1 ml membrane-binding solution (MBS; 50 mM HEPES pH 7.4, 2.5 mM CaCl2, 5 mM MgCl2, 0.2% BSA) and forced through a 23G needle. Aliquots (0.1 ml) were snap-frozen in liquid nitrogen and stored at −70°C. When required for assay, membranes were slowly thawed on ice before diluting to a concentration that gave total radioligand binding of <10% total counts added. […] Assays were carried out for 1 h in MultiScreen 96-well Filtration Plates (Glass fibre filters, 0.65 μm pore size, Millipore) pre-soaked in 1% non-fat milk/PBS. After the incubation, membrane-associated radioligand was harvested by transferring the assay mixture to the filtration plate housed in a vacuum manifold. […]
Binding and cAMP assays were carried out with triplicate values at each ligand concentration and with each assay being repeated at least three times. The resultant data were analysed using Prism 6 (GraphPad Software Inc.).

[5] = system: glucagon receptor mutant Asp-385^7.41–Glu; conditions: Asp-385^7.41–Glu glucagon receptor; cited from earlier work
From the text: […]. These Arg-310^5. ...

[6] = system: glucagon receptor with region (ECL2 and neighbouring helical regions) replaced by GLP-1R equivalent; conditions: ECL2 and neighbouring helical regions replaced with GLP-1R equivalent; cited from earlier work
From the text: as §1

[7] = system: GLP-1R mutant Arg-190^2.60–Ala; conditions: cited from earlier work
[8] = system: GLP-1R mutant Arg-190^2.60–Ala; conditions: cited from earlier work; remark: listed apart in the source

Substance: GLP-1(9–36)amide: Truncation of the first two residues of GLP-1 (EGTFTSDVSSYLEGQAAKEFIAWLVKGR-NH2; UniProt P01275 100-127, looked up, fragment)
affinity (GLP-1R [1]): reduced affinity
efficacy (GLP-1R [2]): substantial loss of efficacy

Substance: Glu-3–glucagon: native glucagon has Gln-3*
affinity and potency [3]: could be rescued
affinity and potency (glucagon receptor): reduced affinity and potency

specific binding [4]: reduced specific binding
Substance: ^125I-GLP-1: radioligand, kind gift of Novo Nordisk

Substance: Ala-2–glucagon: Ser-2* of glucagon replaced (equivalent of Ala-8* in GLP-1)
effect on affinity and potency [5]: improve the affinity and potency

Substance: Ser-12–glucagon: Lys-12* in native glucagon, equivalent of Ser-18* in GLP-1
affinity and potency (glucagon receptor): reduced affinity and potency
affinity and potency [6]: could be rescued

Substance: glucagon: native glucagon
effect on affinity and potency [5]: reducing the affinity and potency

Substance: oxyntomodulin: has Gln at the 3rd position rather than Glu
effect on efficacy [7]: did not reduce oxyntomodulin affinity or efficacy
effect on affinity [8]: did not reduce oxyntomodulin affinity or efficacy
